Source: US7087642B2 (priority 1999, dated 2006)
Like-named read-outs stand apart in the source and are kept apart here.

Experiments:
[1] = tested on: human PBMC B cells; assay: cells; format: cell-based; conditions: read-out: B-cells (IC50)
[2] = tested on: human PBMC T cells; assay: cells; format: cell-based; conditions: read-out: T-cells (IC50)
[3] = molecular target: IMPDH human type II (Homo sapiens, UniProt P12268); assay: biochemical

Row | Structure (SMILES) | IC50 ([1]; Homo sapiens, 72 h) [nM] | IC50 ([2]; Homo sapiens, 72 h) [nM] | Ki ([3]; read-out: Ki) [nM] | Ki [3] [nM] | IC50 [1] [nM] | IC50 [2] [nM]
1 | COc1cc(NC(=O)Nc2cccc(CNC(=O)OC(CCN(CC(C)C)C(C)C)c3ccccc3)c2)ccc1-c1cnco1 (stereo not drawn) [Compound 130] | > 1000 | 100 to 1000 | > 50 |  |  | 
2 | COc1cc(NC(=O)Nc2cccc(CNC(=O)OC(CCN(CC3CC3)C(C)C)c3ccccc3)c2)ccc1-c1cnco1 (stereo not drawn) [Compound 131] | 100 to 1000 | 100 to 1000 | > 50 |  |  | 
3 | CCN(CC)CC(OC(=O)Nc1ccc(NC(=O)Nc2ccc(-c3cnco3)c(OC)c2)cc1)C(C)(C)C (stereo not drawn) [Compound 132] | 100 to 1000 | 100 to 1000 | > 50 |  |  | 
4 | CCN(CC(OC(=O)NCc1cccc(NC(=O)Nc2ccc(-c3cnco3)c(OC)c2)c1)C1CCCCC1)C(C)C (stereo not drawn) [Compound 158] | 100 to 1000 | > 1000 | 10 to 50 |  |  | 
5 | CC[C@H](CCC#N)OC(=O)N[C@@H](C)c1cccc(NC(=O)Nc2ccc(C#N)c(OC)c2)c1 [Compound 162] | 100 to 1000 | 100 to 1000 | 10 to 50 |  |  | 
6 | CCC(CC#N)OC(=O)NC(C)c1cccc(NC(=O)Nc2ccc(-c3cnco3)c(OC)c2)c1 (stereo not drawn) [Compound 163] | < 100 | < 100 | 10 to 50 |  |  | 
7 | CCN(CC)C[C@@H](OC(=O)NC(C)c1cccc(NC(=O)Nc2ccc(-c3cnco3)c(OC)c2)c1)c1ccccc1 (stereo partly drawn) [Compound 166] | 100 to 1000 | 100 to 1000 | > 50 |  |  | 
8 | CC[C@H](CC#N)OC(=O)N[C@@H](C)c1cccc(NC(=O)Nc2ccc(C#N)c(OC)c2)c1 [Compound 169] | < 100 | < 100 |  | < 10 |  | 
9 | COc1cc(NC(=O)Nc2cccc([C@H](C)NC(=O)OCCC#N)c2)ccc1C#N [Compound 170] | 100 to 1000 | 100 to 1000 | < 10 |  |  | 
10 | COc1cc(NC(=O)Nc2cccc([C@@H](C)NC(=O)OCCC#N)c2)ccc1C#N [Compound 173] | 100 to 1000 | > 1000 | > 50 |  |  | 
11 | CCC(CC#N)OC(=O)N[C@H](C)c1cccc(NC(=O)Nc2ccc(C#N)c(OC)c2)c1 (stereo partly drawn) [Compound 174] |  |  |  | > 50 | 100 to 1000 | > 1000
12 | CCC(CO)OC(=O)N[C@H](C)c1cccc(NC(=O)Nc2ccc(C#N)c(OC)c2)c1 (stereo partly drawn) [Compound 175] | > 1000 | > 1000 | > 50 |  |  | 
13 | CC[C@H](CO)OC(=O)N[C@H](C)c1cccc(NC(=O)Nc2ccc(C#N)c(OC)c2)c1 [Compound 179] | > 1000 | > 1000 | > 50 |  |  | 
14 | CC[C@H](CO)OC(=O)N[C@@H](C)c1cccc(NC(=O)Nc2ccc(C#N)c(OC)c2)c1 [Compound 180] | > 1000 | 100 to 1000 | 10 to 50 |  |  | 
15 | CCC(CC#N)OC(=O)N[C@@H](C)c1cccc(NC(=O)Nc2ccc(-c3cnco3)c(OC)c2)c1 (stereo partly drawn) [Compound 181] | < 100 | < 100 | < 10 |  |  | 
16 | CCOc1cc(NC(=O)Nc2cccc([C@H](C)NC(=O)O[C@H](CC)CC#N)c2)ccc1C#N [Compound 182] | 100 to 1000 | > 1000 | > 50 |  |  | 
17 | COc1cc(NC(=O)Nc2cccc([C@H](C)NC(=O)O[C@H]3CCOC3)c2)ccc1C#N [Compound 185] |  |  | 10 to 50 |  | 100 to 1000 | 100 to 1000
18 | C[C@H](NC(=O)O[C@H]1CCOC1)c1cccc(NC(=O)Nc2ccc(C#N)c(Cl)c2)c1 [Compound 187] | < 100 | 100 to 1000 |  | 10 to 50 |  | 
